ChEMBL document CHEMBL3421527, “Synthesis and anti-mycobacterial activity of 2-chloronicotinaldehydes based novel 1H-1,2,3-triazolylbenzohydrazides” (Bioorg Med Chem Lett, 2015)
Converted amounts (≈) assume the structure as drawn.

Key:
[1] = tested on: Mycobacterium tuberculosis; test: Anti-mycobacterial activity against Mycobacterium tuberculosis H37Rv ATCC 27294 assessed as inhibition of microbial growth incubated for 5 days by MABA method; type: functional; conditions: H37Rv ATCC 27294, 120 h
[2] = Selectivity index, ratio of IC50 for PBMC (unknown origin) to MIC for Mycobacterium tuberculosis H37Rv ATCC 27294
[3] = tested on: PBMC; test: Cytotoxicity against PBMC (unknown origin) assessed as reduction in cell viability after 72 hrs by MTT assay; type: cell-based; conditions: Homo sapiens
[4] = Selectivity index, ratio of IC50 for mouse RAW264.7 cells to MIC for Mycobacterium tuberculosis H37Rv ATCC 27294; type: toxicity; conditions: read-out: Selectivity Index
[5] = tested on: RAW264.7; test: Cytotoxicity against mouse RAW264.7 cells assessed as reduction in cell viability after 72 hrs by MTT assay; type: cell-based; conditions: RAW264.7, 72 h

Compound	MIC [1] [µM]	Selectivity Index [2]	IC50 [3] [µg/mL]	selectivity ratio [4]	IC50 [5] [µg/mL]
O=Cc1cn(Cc2cc(-c3ccccc3)cnc2N2CCSCC2)nn1	8.6	–	–	–	–
Cc1cnc(N2CCSCC2)c(Cn2cc(/C=N/NC(=O)c3ccc(C(F)(F)F)cc3)nn2)c1	3.2	224	350 (≈ 715 µM)	136	212 (≈ 433 µM)
Cc1ccc(-c2cnc(Cl)c(Cn3cc(C=O)nn3)c2)cc1	40.1	–	–	–	–
O=Cc1cn(Cc2cc(-c3ccc(F)cc3)cnc2Cl)nn1	19.8	–	–	–	–
O=C(N/N=C/c1cn(Cc2cc(-c3ccccc3)cnc2N2CCOCC2)nn1)c1ccc(F)cc1	12.9	–	–	–	–
Cc1ccc(-c2cnc(Cl)c(Cn3cc(/C=N/NC(=O)c4ccc(C(F)(F)F)cc4)nn3)c2)cc1	50.2	–	–	–	–
Cc1cnc(N2CCOCC2)c(Cn2cc(/C=N/NC(=O)c3ccc(F)cc3)nn2)c1	59.1	–	–	–	–
O=C(N/N=C/c1cn(Cc2cc(-c3ccccc3)cnc2Cl)nn1)c1ccc(F)cc1	3.6	228	357 (≈ 821 µM)	97	152 (≈ 350 µM)
Cc1cnc(Cl)c(Cn2cc(/C=N/NC(=O)c3ccc(F)cc3)nn2)c1	33.6	–	–	–	–
Cc1ccc(-c2cnc(N3CCSCC3)c(Cn3cc(C=O)nn3)c2)cc1	33.1	–	–	–	–
Cc1cnc(N2CCSCC2)c(Cn2cc(C=O)nn2)c1	10.3	–	–	–	–
O=Cc1cn(Cc2cc(-c3ccccc3)cnc2N2CCOCC2)nn1	4.5	–	–	–	–
Cc1ccc(-c2cnc(N3CCOCC3)c(Cn3cc(C=O)nn3)c2)cc1	4.3	–	–	–	–
O=Cc1cn(Cc2cc(-c3ccccc3)cnc2Cl)nn1	5.2	–	–	–	–
CC[C@@H](CO)NCCN[C@@H](CC)CO [ETHAMBUTOL]	15.3	–	–	–	–
O=C(O)c1cn(C2CC2)c2cc(N3CCNCC3)c(F)cc2c1=O [CIPROFLOXACIN]	12.6	–	–	–	–
O=C(N/N=C/c1cn(Cc2cc(-c3ccccc3)cnc2N2CCSCC2)nn1)c1ccc(C(F)(F)F)cc1	2.8	120	188 (≈ 341 µM)	189	296 (≈ 537 µM)

Compound	MIC [1] [µM]	Selectivity Index [2]	IC50 [3] [µg/mL]	selectivity ratio [4]	IC50 [5] [µg/mL]
O=C(N/N=C/c1cn(Cc2cc(-c3ccc(F)cc3)cnc2Cl)nn1)c1ccc(F)cc1	13.8	–	–	–	–
Cc1ccc(-c2cnc(N3CCOCC3)c(Cn3cc(/C=N/NC(=O)c4ccc(F)cc4)nn3)c2)cc1	100	–	–	–	–
Cc1cnc(N2CCOCC2)c(Cn2cc(/C=N/NC(=O)c3ccc(C(F)(F)F)cc3)nn2)c1	26.4	–	–	–	–
O=C(N/N=C/c1cn(Cc2cc(-c3ccccc3)cnc2N2CCSCC2)nn1)c1ccc(F)cc1	6.2	>128	> 400	60	188 (≈ 375 µM)
Cc1ccc(-c2cnc(Cl)c(Cn3cc(/C=N/NC(=O)c4ccc(F)cc4)nn3)c2)cc1	27.9	–	–	–	–
Cc1cnc(N2CCSCC2)c(Cn2cc(/C=N/NC(=O)c3ccc(F)cc3)nn2)c1	28.5	–	–	–	–
Cc1ccc(-c2cnc(N3CCOCC3)c(Cn3cc(/C=N/NC(=O)c4ccc(C(F)(F)F)cc4)nn3)c2)cc1	91.1	–	–	–	–
O=C(N/N=C/c1cn(Cc2cc(-c3ccc(F)cc3)cnc2Cl)nn1)c1ccc(C(F)(F)F)cc1	12.5	–	–	–	–
Cc1cnc(Cl)c(Cn2cc(/C=N/NC(=O)c3ccc(C(F)(F)F)cc3)nn2)c1	3.7	216	337 (≈ 797 µM)	165	258 (≈ 610 µM)
Cc1cnc(N2CCOCC2)c(Cn2cc(C=O)nn2)c1	21.8	–	–	–	–
NNC(=O)c1ccncc1 [ISONIAZID]	2.6	–	169 (≈ 1230 µM)	–	> 400
Cc1cnc(Cl)c(Cn2cc(C=O)nn2)c1	13.3	–	–	–	–
Cc1ccc(-c2cnc(N3CCSCC3)c(Cn3cc(/C=N/NC(=O)c4ccc(C(F)(F)F)cc4)nn3)c2)cc1	5.4	>128	> 400	104	326 (≈ 576 µM)
O=C(N/N=C/c1cn(Cc2cc(-c3ccccc3)cnc2N2CCOCC2)nn1)c1ccc(C(F)(F)F)cc1	23.3	–	–	–	–
Cc1ccc(-c2cnc(N3CCSCC3)c(Cn3cc(/C=N/NC(=O)c4ccc(F)cc4)nn3)c2)cc1	97.1	–	–	–	–
O=C(N/N=C/c1cn(Cc2cc(-c3ccccc3)cnc2Cl)nn1)c1ccc(C(F)(F)F)cc1	3.2	180	282 (≈ 582 µM)	200	313 (≈ 646 µM)
